What was measured:
human GLP-1R [1] = biological target: human GLP-1R (Homo sapiens, UniProt P43220, L260F); test: CHO GLP-1R Clone C6 cAMP HTRF agonist assay (Assay 2, low receptor density); format: cell-based; conditions: for EC50: CHO GLP-1R clone C6, cAMP HTRF, geometric mean; for Emax: CHO GLP-1R clone C6, arithmetic mean, relative to saturating GLP-1 (1 μM)
Description: In Table 5 and Table 6, assay data are presented to two (2) significant figures as the geometric mean (EC50s) and arithmetic mean (Emax) based on the number of replicates listed (Number). A blank cell means there was no data for that Example or the Emax was not calculated.

human GLP-1R [2] = biological target: human GLP-1R (Homo sapiens, UniProt P43220, G168S); test: CHO GLP-1R Clone H6 cAMP HTRF agonist assay (Assay 1, high receptor density); format: cell-based; conditions: for EC50: CHO GLP-1R clone H6, cAMP HTRF, geometric mean; for Emax: read-out: Assay 1 Emax (%)
human GLP-1R (Homo sapiens, UniProt P43220, G168S), sequence (P43220 24-463 G168S): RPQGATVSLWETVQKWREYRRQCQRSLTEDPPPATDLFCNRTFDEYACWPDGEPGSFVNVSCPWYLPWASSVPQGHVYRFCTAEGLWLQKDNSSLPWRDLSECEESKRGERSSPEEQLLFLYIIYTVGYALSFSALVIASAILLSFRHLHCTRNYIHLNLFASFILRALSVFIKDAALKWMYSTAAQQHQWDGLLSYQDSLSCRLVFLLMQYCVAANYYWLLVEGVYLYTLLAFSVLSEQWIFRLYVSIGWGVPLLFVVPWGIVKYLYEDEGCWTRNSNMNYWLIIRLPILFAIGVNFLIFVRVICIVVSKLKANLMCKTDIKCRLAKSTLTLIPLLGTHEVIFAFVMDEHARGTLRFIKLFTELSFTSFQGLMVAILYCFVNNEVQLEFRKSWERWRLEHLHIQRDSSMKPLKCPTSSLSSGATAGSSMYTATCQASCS
In short: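 Replicate runs were pooled. Potencies were averaged geometrically and maximal efficacies arithmetically, then rounded to two significant figures.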

[3] = CHO GLP-1R clone H6, arithmetic mean, relative to saturating GLP-1 (1 μM)

human GLP-1R (Homo sapiens, UniProt P43220, L260F), sequence (P43220 24-463 L260F): as the sequence (P43220 24-463 G168S) above, with S145G, L237F counted along it

SMILES	EC50 (human GLP-1R [1]) [µM]	EC50 (human GLP-1R [2]) [µM]	Emax (human GLP-1R [2]; [3]) [%]	Emax (human GLP-1R [1]) [%]	Assay 1 Emax (%) (human GLP-1R [2]; [3])
O=C(O)c1ccc2nc(CN3CCN(c4cccc(OCc5ccc(Cl)cc5F)n4)CC3)n(Cc3ncco3)c2c1 [Compound 151B, 2-[(4-{6-[(4-chloro-2-fluorobenzyl)oxy]pyridin-2-yl}piperazin-1-yl)methyl]-1-(1,3-oxazol-2-ylmethyl)-1H-benzimidazole-6-carboxylic acid]	0.28	0.022	87	–	–
Cn1cncc1Cn1c(CN2CCN(c3cccc(OCc4ccc(Cl)cc4F)n3)CC2)nc2ccc(C(=O)O)cc21 [Compound 153B, 2-[(4-{6-[(4-chloro-2-fluorobenzyl)oxy]pyridin-2-yl}piperazin-1-yl)methyl]-1-[(1-methyl-1H-imidazol-5-yl)methyl]-1H-benzimidazole-6-carboxylic acid]	1.2	0.024	76	94	–
O=C(O)c1ccc2nc(CN3CCC(c4cccc(OCc5ccc(F)cc5F)n4)CC3)n(Cc3cnco3)c2c1 [Compound 157B, 2-[(4-{6-[(2,4-difluorobenzyl)oxy]pyridin-2-yl}piperidin-1-yl)methyl]-1-(1,3-oxazol-5-ylmethyl)-1H-benzimidazole-6-carboxylic acid]	0.22	0.0085	88	110	–
O=C(O)c1ccc2nc(CN3CCN(c4cccc(OCc5ccc(Cl)cc5F)n4)CC3)n(Cc3cnco3)c2c1 [Compound 158B, 2-[(4-{6-[(4-chloro-2-fluorobenzyl)oxy]pyridin-2-yl}piperazin-1-yl)methyl]-1-(1,3-oxazol-5-ylmethyl)-1H-benzimidazole-6-carboxylic acid]	0.19	0.014	72	83	–
CCn1cncc1Cn1c(CN2CCC(c3cccc(OCc4ccc(C#N)cc4F)n3)CC2)nc2ccc(C(=O)O)cc21 [Compound 162B, 2-[(4-{6-[(4-cyano-2-fluorobenzyl)oxy]pyridin-2-yl}piperidin-1-yl)methyl]-1-[(1-ethyl-1H-imidazol-5-yl)methyl]-1H-benzimidazole-6-carboxylic acid]	0.0074	0.00034	78	94	–
CCn1nncc1Cn1c(CN2CCC(c3cccc(OCc4ccc(C#N)cc4F)n3)CC2)nc2ccc(C(=O)O)cc21 [Compound 164B, 2-[(4-{6-[(4-cyano-2-fluorobenzyl)oxy]pyridin-2-yl}piperidin-1-yl)methyl]-1-[(1-ethyl-1H-1,2,3-triazol-5-yl)methyl]-1H-benzimidazole-6-carboxylic acid]	0.055	0.0032	–	86	–
N#Cc1ccc(COc2cccc(C3CCN(Cc4nc5ccc(C(=O)O)nc5n4Cc4ncco4)CC3)n2)c(F)c1 [Compound 168B, 2-[(4-{6-[(4-cyano-2-fluorobenzyl)oxy]pyridin-2-yl}piperidin-1-yl)methyl]-3-(1,3-oxazol-2-ylmethyl)-3H-imidazo[4,5-b]pyridine-5-carboxylic acid]	1.7	–	–	88	79
COCCn1c(CN2CCN(c3cccc(OCc4ccc(Cl)cc4F)n3)[C@@H](C)C2)nc2ccc(C(=O)O)cc21 [Compound 183B, 2-{[(3S)-4-{6-[(4-chloro-2-fluorobenzyl)oxy]pyridin-2-yl}-3-methylpiperazin-1-yl]methyl}-1-(2-methoxyethyl)-1H-benzimidazole-6-carboxylic acid]	3.5	0.18	78	90	–
COCCn1c(CN2CCN(c3cccc(OCc4ccc(Cl)cc4F)n3)[C@@H](CO)C2)nc2ccc(C(=O)O)cc21 [Compound 185B, 2-{[(3R)-4-{6-[(4-chloro-2-fluorobenzyl)oxy]pyridin-2-yl}-3-(hydroxymethyl)piperazin-1-yl]methyl}-1-(2-methoxyethyl)-1H-benzimidazole-6-carboxylic acid]	0.0022	0.00034	89	97	–
CCCn1cnnc1Cn1c(CN2CCC(c3cccc(OCc4ccc(Cl)cc4F)n3)CC2)nc2ccc(C(=O)O)cc21 [Compound 187B, 2-[(4-{6-[(4-chloro-2-fluorobenzyl)oxy]pyridin-2-yl}piperidin-1-yl)methyl]-1-[(4-propyl-4H-1,2,4-triazol-3-yl)methyl]-1H-benzimidazole-6-carboxylic acid]	2.1	0.049	71	–	–
Cn1cnnc1Cn1c(CN2CCC(c3cccc(OCc4ccc(C#N)cc4F)n3)CC2)nc2ccc(C(=O)O)cc21 [Compound 188B, 2-[(4-{6-[(4-cyano-2-fluorobenzyl)oxy]pyridin-2-yl}piperidin-1-yl)methyl]-1-[(4-methyl-4H-1,2,4-triazol-3-yl)methyl]-1H-benzimidazole-6-carboxylic acid]	0.038	0.0024	71	83	–
CO[C@H]1C[C@@H](Cn2c(CN3CCC(c4cccc(OCc5ccc(Cl)cc5F)n4)CC3)nc3ccc(C(=O)O)cc32)C1 [Compound 195B, 2-[(4-{6-[(4-chloro-2-fluorobenzyl)oxy]pyridin-2-yl}piperidin-1-yl)methyl]-1-[(cis-3-methoxycyclobutyl)methyl]-1H-benzimidazole-6-carboxylic acid]	4.4	0.11	68	110	–

Further compounds by falling EC50 (human GLP-1R [1]), results first:

EC50 (human GLP-1R [1]) [µM]	EC50 (human GLP-1R [2]) [µM]	Emax (human GLP-1R [2]; [3]) [%]	Emax (human GLP-1R [1]) [%]	Assay 1 Emax (%) (human GLP-1R [2]; [3])	SMILES
4	0.079	81	75	–	COCCn1c(CN2CCC(c3cccc(OCc4ccc(Cl)cc4F)n3)CC2)nc2ccc(C(=O)O)c(F)c21 [Compound 170B, 2-[(4-{6-[(4-chloro-2-fluorobenzyl)oxy]pyridin-2-yl}piperidin-1-yl)methyl]-7-fluoro-1-(2-methoxyethyl)-1H-benzimidazole-6-carboxylic acid]
2.1	0.17	78	71	–	COCCn1c(CN2CCN(c3ccc(F)c(OCc4ccc(C#N)cc4)n3)C[C@@H]2C)nc2ccc(C(=O)O)cc21 [Compound 175B, 2-{[(2S)-4-{6-[(4-cyanobenzyl)oxy]-5-fluoropyridin-2-yl}-2-methylpiperazin-1-yl]methyl}-1-(2-methoxyethyl)-1H-benzimidazole-6-carboxylic acid]
0.35	0.018	84	77	–	O=C(O)c1ccc2nc(CN3CCC(c4cccc(OCc5ccc(Cl)cc5F)n4)CC3)n(Cc3ncco3)c2n1 [Compound 167B, 2-[(4-{6-[(4-chloro-2-fluorobenzyl)oxy]pyridin-2-yl}piperidin-1-yl)methyl]-3-(1,3-oxazol-2-ylmethyl)-3H-imidazo[4,5-b]pyridine-5-carboxylic acid]
0.15	0.0079	80	100	–	O=C(O)c1ccc2nc(CN3CCC(c4cccc(OCc5ccc(Cl)cc5F)n4)CC3)n(Cc3cocn3)c2c1 [Compound 155B, 2-[(4-{6-[(4-chloro-2-fluorobenzyl)oxy]pyridin-2-yl}piperidin-1-yl)methyl]-1-(1,3-oxazol-4-ylmethyl)-1H-benzimidazole-6-carboxylic acid]
0.078	0.006	80	88	–	Cn1cncc1Cn1c(CN2CCN(c3cccc(OCc4ccc(C#N)cc4F)n3)CC2)nc2ccc(C(=O)O)cc21 [Compound 154B, 2-[(4-{6-[(4-cyano-2-fluorobenzyl)oxy]pyridin-2-yl}piperazin-1-yl)methyl]-1-[(1-methyl-1H-imidazol-5-yl)methyl]-1H-benzimidazole-6-carboxylic acid]
0.043	0.0032	77	84	–	COCCn1c(CN2CCN(c3cccc(OCc4ccc(Cl)cc4F)n3)[C@H](C)C2)nc2ccc(C(=O)O)cc21 [Compound 184B, 2-{[(3R)-4-{6-[(4-chloro-2-fluorobenzyl)oxy]pyridin-2-yl}-3-methylpiperazin-1-yl]methyl}-1-(2-methoxyethyl)-1H-benzimidazole-6-carboxylic acid]
0.022	0.0005	73	–	–	CCn1nncc1Cn1c(CN2CCN(c3cccc(OCc4ccc(C#N)cc4F)n3)CC2)nc2ccc(C(=O)O)cc21 [Compound 159B, 2-[(4-{6-[(4-cyano-2-fluorobenzyl)oxy]pyridin-2-yl}piperazin-1-yl)methyl]-1-[(1-ethyl-1H-1,2,3-triazol-5-yl)methyl]-1H-benzimidazole-6-carboxylic acid]
0.014	0.00096	80	95	–	O=C(O)c1ccc2nc(CN3CCC(c4cccc(OCc5ccc(Cl)cc5F)n4)CC3)n(Cc3ncco3)c2c1 [Compound 156B, 2-[(4-{6-[(4-chloro-2-fluorobenzyl)oxy]pyridin-2-yl}piperidin-1-yl)methyl]-1-(1,3-oxazol-2-ylmethyl)-1H-benzimidazole-6-carboxylic acid]
0.013	0.0011	79	100	–	N#Cc1ccc(COc2cccc(C3CCN(Cc4nc5ccc(C(=O)O)cc5n4Cc4ccon4)CC3)n2)c(F)c1 [Compound 161B, 2-[(4-{6-[(4-cyano-2-fluorobenzyl)oxy]pyridin-2-yl}piperidin-1-yl)methyl]-1-(1,2-oxazol-3-ylmethyl)-1H-benzimidazole-6-carboxylic acid]

Reference: patent US20250235460A1, “COMBINATION THERAPY USING GLUCOSE-DEPENDENT INSULINOTROPIC POLYPEPTIDE RECEPTOR ANTAGONIST COMPOUNDS AND GLP-1 RECEPTOR AGONIST COMPOUNDS” (Pfizer Inc., priority 2024, published 2025)
